This is an account of results in US11912723B2, “KRAS modulators and uses thereof” (Quanta Therapeutics, Inc., priority 2022, dated 2024).

Assay [1] addresses T1, GST-tagged KRAS G12D (2-169) (Homo sapiens, UniProt P01116, G12D).
T1 construct: GST-tagged KRAS^G12D (2-169, Reaction Biology, MSC-11-539); purchased Reaction Biology MSC-11-539 (KRAS G12D); MSC-11-502 (SOS1cat)
The assay can be described thus: Nucleotide exchange assay (NEA), HTRF of SOS-mediated GTP-DY-647P1 binding. The format is biochemical. Conditions: 5 nM GST-KRAS G12D, 20 nM SOScat, 150 nM GTP; compound 1 h at RT. The text has this:
This activity is tightly regulated by GTPase activating proteins (GAPs) and guanine nucleotide exchange factors (GEFs). GEFs, such as SOS1/2, activate Ras proteins by exchanging GDP for GTP, thus returning Ras to its active conformation (Simanshu, Nissley, & McCormick, 2017). […] Homogenous time resolved fluorescence (HTRF) was used to detect SOS-mediated binding of a fluorescent GTP analog, GTP-DY-647P1 (Jena Biosciences NU-820-647P1) to GST-tagged KRAS^G12D (2-169, Reaction Biology, MSC-11-539).
GST-tagged KRAS^G12D (2-169) and anti-GST MAb Tb Cryptate Gold (CisBio 61GSTTLB) were diluted into assay buffer (20 mM HEPES, pH 7.3, 150 mM NaCl, 5 mM MgCl2, 0.05% BSA 0.0025% NP40, 1 mM DTT) to prepare a 2.5× donor solution. 5× compound was added to the protein mixture and incubated for 1 h at RT. 2.5× acceptor solution containing SOS1cat (564-1049, Reaction Biology MSC-11-502) and GTP-DY-647P1 were then added to the donor KRAS mixture such that the final concentration of the reaction contained 5 nM GST-tagged KRAS^G12D (2-169), 20 nM SOScat, and 150 nM GTP. The reaction was monitored using at RT with the Envision multimode plate reader (Ex/Em 337/665, […]) up to 90 minutes at 5 minute intervals. Data was blanked to reactions without SOS1 and % inhibition was calculated such that DMSO only=0% and blank=100%. Curve fitting was done using a 4 parameter fit. NEA KRAS G12D ID50 (uM) values of selected compounds are depicted in Table 2 with compounds having a value<0.01 uM as ++++; >0.01 uM to 0.1 uM as +++; >0.1 uM to 1 uM as ++; >1 uM to 20 uM as +; and >20 uM as NA.

For the next assay, the target named is T2, KRAS G12D/RAF1 (Homo sapiens, UniProt P01116, G12D).
T2 construct: KRAS (1-169) proteins were expressed in E. coli at 18° C; His6-MBP (N, cleaved yes); made in house; host or cells: E. coli
The assay can be described thus: Protein-protein interaction (PPI) HTRF assay KRAS G12D/RAF1. Format: binding. Conditions: KRAS G12D/RAF1, GppNHp-loaded KRAS; 30 minutes pre-incubation. The protocol:
Biotinylated KRAS wt and KRAS G12DNV proteins were expressed and purified in conditions similar to those previously reported (Tran, et al., 2021) (Zhang, et al., 2020). Briefly, KRAS (1-169) proteins were expressed in E. coli at 18° C. with an upstream TEV cleavage site (ENLFYQS) followed an Avi tag sequence ([…]). KIRAS expression constructs contained both a His6 and maltose-binding protein (MBP) tags at the N-terminus for Ni-NTA column purification prior to overnight TEV cleavage and MBP column purification. The avi-tagged NRAS expression construct contained both a His6 tag and SUMO cleavage sige at the N-terminus for Ni-NTA column purification followed by His-ULP1 digestion overnight. All avi-tagged RAS proteins were dialyzed into buffer containing ATP, biotin, and BirA followed by purification over a second Ni-NTA column and then run over a size exclusion HiLoad™ 26/600 Superdex™ column in 20 mM HEPES, pH 7.5, 300 mM NaCl, 5 mM MgCl2, and 1 mM TCEP. Fractions containing the protein of interest were pooled, concentrated, and confirmed by intact mass spectrometry. To prepare ‘GTP’ loaded KRAS and NRAS, biotinylated KRAS or NRAS was nucleotide exchanged from GDP-bound protein to GppNHp-bound (Jena Biosciences, NU-401-50) protein in the presence of alkaline phosphatase and excess GppNHp as previously described and the resulting nucleotide content was confirmed by HPLC reverse phase analytical chromatography (Donohue, et al., 2019) (Tran, et al., 2021).
His-tagged RAF1 (52-131) was similarly expressed in E. coli at 18° C. overnight with an upstream TEV cleavage site. His-tagged RAF1 expression construct contained both a His6 and MBP tags at the N-terminus for Ni-NTA column purification followed by MBP-tagged TEV digestion overnight. RAF1 protein samples were further purified over a MBP column followed by a Ni-NTA column and a second MBP column. The fractions containing the protein of interest were pooled, concentrated, and further purified over a HiLoad™ 16/600 Superdex™ 75 pg size exclusion column into 20 mM HEPES, pH8.0, 200 mM NaCl, 5 mM TCEP.
When RAS proteins are in the active GTP-bound conformation, they bind the effector protein RAF1 at the N-terminus Ras-binding domain (RBD, residues 52-131) (Tran, et al., 2021). Homogenous time resolved fluorescence (HTRF) was used to monitor the interaction between wt or mutant KRAS and RAF1 or wt NRAS and RAFT. Compounds were assayed in the presence of KRAS G12D/V and RAF1 versus wt KRAS to assess activity against mutant and w.t. KRAS. Similarly, compounds were then assayed in the presence of w.t. NRAS and RAF1 to assess RAS isoform selectivity. In all assay formats, His-tagged RAF1 protein was incubated with the HTRF donor, anti-6His Tb Cryptate gold (Cisbio 61DB10RDF), and biotinylated RAS proteins were incubated with the HTRF acceptor, streptavidin-d2 (CisBio 610SADLA). The intensity of the fluorescence signal emitted is proportional to binding between the two proteins. The donor solution was prepared by mixing 16 nM His-tagged RAF1 in protein dilution buffer with 1:100 anti-6His Tb cryptate in PPI-Terbium detection buffer. 16 nM biotinylated RAS protein was diluted into protein dilution buffer (50 mM Tris-HCl pH 7.5, 150 mM NaCl, 0.1 mM MgCl2, 1 mM TCEP, 0.005% Tween20) and mixed with 1:2000 Streptavidin-d2 diluted in PPI-Terbium detection buffer (CisBio 61DB10RDF). 50× compound in DMSO was mixed with 16 nM KRAS-acceptor solution and incubated for 30 minutes at room temperature. After compound pre-incubation with KRAS, the RAF1 donor solution was added to the KRAS-acceptor solution and incubated for 1 hour at room temperature. The fluorescence signal emitted was monitored at 665 nm and 615 nm using an Envision multimode plate reader. The HTRF ratio (665/615) was calculated and normalized to 0% inhibition in the absence of compound and 100% inhibition in the presence of untagged RAF1 protein. […]
A general note: Time-resolved FRET reads energy transfer from a long-lived donor to a nearby acceptor.

T2 sequence (P01116 1-169 isoform P01116-2 G12D): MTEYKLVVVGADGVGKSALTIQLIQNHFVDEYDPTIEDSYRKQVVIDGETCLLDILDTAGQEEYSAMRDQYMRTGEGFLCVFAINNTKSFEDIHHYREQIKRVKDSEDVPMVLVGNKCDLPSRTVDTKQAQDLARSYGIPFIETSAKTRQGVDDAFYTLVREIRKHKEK
T1 sequence (P01116 2-169 isoform P01116-2 G12D): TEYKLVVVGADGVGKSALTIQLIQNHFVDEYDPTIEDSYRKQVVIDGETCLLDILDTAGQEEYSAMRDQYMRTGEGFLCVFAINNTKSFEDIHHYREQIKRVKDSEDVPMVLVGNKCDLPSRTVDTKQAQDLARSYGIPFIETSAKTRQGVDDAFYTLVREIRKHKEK

A word on the IC50: it is the concentration needed to halve the response being measured. A lower IC50 goes with greater potency. `O=C1NC(=O)C2(CCCN(c3nc(OC[C@@]45CCCN4C[C@H](F)C5)nc4c3COC3(CCc5ccc(O)cc53)C4)C2)N1` (mixture of isomers) [Compound 30, 9-[6′-hydroxy-2-[[rac-(2R,8S)-2-fluoro-1,2,3,5,6,7-hexahydropyrrolizin-8-yl]methoxy]spiro[5,8-dihydropyrano[4,3-d]pyrimidine-7,1′-indane]-4-yl]-1,3,9-triazaspiro[4.5]decane-2,4-dione]: the IC50 is 1 to 20 µM in assay [1] and over 100 µM against KRAS G12D/RAF1.

Take `C[C@@]1(O)CCCN(c2nc(OC[C@@]34CCCN3C[C@H](F)C4)nc3c2COC2(CCc4c(Cl)cccc42)C3)C1` (single isomer, unassigned) [Compound 23A, (3R)-1-[(7*)-4′-chloro-2-[[(2R,8S)-2-fluoro-1,2,3,5,6,7-hexahydropyrrolizin-8-yl]methoxy]spiro[5,8-dihydropyrano[4,3-d]pyrimidine-7,1′-indane]-4-yl]-3-methyl-piperidin-3-ol]: the IC50 in assay [1] is 0.1 to 1 µM; at KRAS G12D/RAF1, over 100 µM.

In the case of `O=C1NC(=O)[C@]2(CCCN(c3nc(OC[C@@]45CCCN4C[C@H](F)C5)nc4c3COC3(CCCc5c(Cl)cc(O)cc53)C4)C2)N1` (single isomer, unassigned) [Compound 51B, (5R)-9-[(7*)-5′-chloro-2-[[(2R,8S)-2-fluoro-1,2,3,5,6,7-hexahydropyrrolizin-8-yl]methoxy]-7′-hydroxy-spiro[5,8-dihydropyrano[4,3-d]pyrimidine-7,1′-tetralin]-4-yl]-1,3,9-triazaspiro[4.5]decane-2,4-dione], the IC50 in assay [1] was 0.01 to 0.1 µM; on KRAS G12D/RAF1, 10 to 100 µM.

As to `CN(C)C(=O)c1nn2c(c1Cl)CN(c1nc(OC[C@@]34CCCN3C[C@H](F)C4)nc3c1CN(C)[C@]1(CCCc4ccccc41)C3)CCC2` (single isomer, unassigned) [Compound 64B], the 50% inhibitory concentration (IC50) in assay [1] is 0.1 to 1 µM; against KRAS G12D/RAF1, over 100 µM.

As to `F[C@H]1CN2CCC[C@@]2(COc2nc3c(c(N4C[C@H]5CC[C@@H](C4)N5)n2)COC2(C3)c3ccccc3-c3n[nH]cc32)C1` (stereo partly drawn) [Compound 3, 4′-[(1R,5S)-3,8-diazabicyclo[3.2.1]octan-3-yl]-2′-[[(2R,8S)-2-fluoro-1,2,3,5,6,7-hexahydropyrrolizin-8-yl]methoxy]spiro[2H-indeno[1,2-c]pyrazole-4,7′-5,8-dihydropyrano[4,3-d]pyrimidine]], the IC50 was 1 to 20 µM in assay [1] and over 100 µM at KRAS G12D/RAF1.

Regarding `Nc1ccc2c(c1)C1(CCC2)Cc2nc(OC[C@@]34CCCN3C[C@H](F)C4)nc(N3CCCC(O)CC3)c2CO1` (stereo partly drawn) [Compound 13, 1-[7′-amino-2-[[(2R,8S)-2-fluoro-1,2,3,5,6,7-hexahydropyrrolizin-8-yl]methoxy]spiro[5,8-dihydropyrano[4,3-d]pyrimidine-7,1′-tetralin]-4-yl]azepan-4-ol], the results for the IC50 (in assay [1]; on KRAS G12D/RAF1) were 1 to 20 µM and 10 to 100 µM, respectively.

Regarding `N#CCC1CCCN(c2nc(OC[C@@]34CCCN3C[C@H](F)C4)nc3c2COC2(CCc4c(Cl)cccc42)C3)CC1` (stereo partly drawn) [Compound 19, 2-(1-(4-chloro-2′-(((2R,7aS)-2-fluorotetrahydro-1H-pyrrolizin-7a(5H)-yl)methoxy)-2,3,5′,8′-tetrahydrospiro[indene-1,7′-pyrano[4,3-d]pyrimidin]-4′-yl)azepan-4-yl)acetonitrile], the IC50 is 1 to 20 µM in assay [1] and over 100 µM against KRAS G12D/RAF1.

For the compound `N#Cc1ccc2c(c1)C1(CCC2)Cc2nc(OC[C@@]34CCCN3C[C@H](F)C4)nc(N3CCCCCC3)c2CO1` (stereo partly drawn) [Compound 20, 4-(azepan-1-yl)-2-[[(2R,8S)-2-fluoro-1,2,3,5,6,7-hexahydropyrrolizin-8-yl]methoxy]spiro[5,8-dihydropyrano[4,3-d]pyrimidine-7,4′-tetralin]-6′-carbonitrile], the half-inhibitory concentration (IC50) was 1 to 20 µM in assay [1] and over 100 µM against KRAS G12D/RAF1.

As for `F[C@H]1CN2CCC[C@@]2(COc2nc3c(c(N4CCCCCC4)n2)COC2(COCc4ccccc42)C3)C1` (stereo partly drawn) [Compound 25, 4-(azepan-1-yl)-2-[[(2R,8S)-2-fluoro-1,2,3,5,6,7-hexahydropyrrolizin-8-yl]methoxy]spiro[5,8-dihydropyrano[4,3-d]pyrimidine-7,4′-isochromane]], the IC50 in assay [1] was 1 to 20 µM; at KRAS G12D/RAF1, over 100 µM.

Take `CN(C)C(=O)c1cc2n(n1)CCCN(c1nc(OC[C@@]34CCCN3C[C@H](F)C4)nc3c1CO[C@]1(CCc4c(Cl)cccc41)C3)C2` [Compound 27A, 5-[(7S)-4′-chloro-2-[[(2R,8S)-2-fluoro-1,2,3,5,6,7-hexahydropyrrolizin-8-yl]methoxy]spiro[5,8-dihydropyrano[4,3-d]pyrimidine-7,1′-indane]-4-yl]-N,N-dimethyl-4,6,7,8-tetrahydropyrazolo[1,5-a][1,4]diazepine-2-carboxamide]: the IC50 in assay [1] is 0.1 to 1 µM; against KRAS G12D/RAF1 it was over 100 µM.

Take `CONC(=O)c1cc2n(n1)CCCN(c1nc(OC[C@@]34CCCN3C[C@H](F)C4)nc3c1CO[C@@]1(CCc4c(Cl)cccc41)C3)C2` [Compound 31, N-methoxy-5-[(7S)-4′-chloro-2-[[(2R,8S)-2-fluoro-1,2,3,5,6,7-hexahydropyrrolizin-8-yl]methoxy]spiro[5,8-dihydropyrano[4,3-d]pyrimidine-7,1′-indane]-4-yl]-4,6,7,8-tetrahydropyrazolo[1,5-a][1,4]diazepine-2-carboxamide]: the values for the IC50 (in assay [1]; against KRAS G12D/RAF1) were 0.01 to 0.1 µM and over 100 µM, respectively.

Take `CN(C)C(=O)c1cc2n(n1)CCCN(c1nc(OC[C@@]34CCCN3C[C@H](F)C4)nc3c1COC1(CCc4ccc(O)cc41)C3)C2` (stereo partly drawn) [Compound 32]: the results for the IC50 (in assay [1]; at KRAS G12D/RAF1) were 0.01 to 0.1 µM and over 100 µM, respectively.
